We go through 1 compound from patent US20050142169A1, “Palatability enhanced composition and method for animal consumption” (priority 2003, published 2005).

The experiment deals with cats. Description: two-bowl preference test, Example 7 (Feline w/d). It counts as in vivo, cat. The settings on record: dry wt. of kibble. From the text: Finally, a commercial dry palatant enhancer (1.4% dry weight basis) was topically applied to the dry kibbles to complete the test composition.
[1] abbreviates: Exp. No. 1, second set of experiments, 5 ppm.
The mark [2] stands for this setting: Exp. No. 2, second set of experiments, 20 ppm.

With `CCC1OC(C)=C(O)C1=O` (stereo not shown) [5-methyl-2-ethyl-4-hydroxy-3(2H)-furanone], the “Intake Ratio” value by setting is: (Exp. No. 1, 5 ppm) 0.8254; under setting [1], 0.7476; (Exp. No. 2, 20 ppm) 0.9731; under setting [2], 0.8679. The “Preference (%) control composition” value (Exp. No. 1, 5 ppm) is on record as 12.0%; the “Preference (%) control composition” value under setting [1] stood at 21.7%; the “Preference (%) control composition” value (Exp. No. 2, 20 ppm) turned out to be 0.0%; the “Preference (%) control composition” value under setting [2] amounted to 8.0%. In addition, the “Preference (%) test composition” value is on record as 88.0% (Exp. No. 1, 5 ppm); 78.3% under setting [1]; 100.0% (Exp. No. 2, 20 ppm); 92.0% under setting [2]. Moreover, the “Status (vs. control)” value is “Win” (Exp. No. 1, 5 ppm); “Win” under setting [1]; “Win” (Exp. No. 2, 20 ppm); “Win” under setting [2].
